This note sets out measurements from article PMC3252702 (ChemMedChem, 2010).

SMILES strings stand for the structures.

One assay addresses HsCDK2 (Homo sapiens, UniProt P24941). The experiment in a line: biochemical.
The target in the next assay is EtCRK2 (Eimeria tenella, UniProt Q6R8F0). The experiment in a line: TR-FRET. The assay is classed as biochemical. In general terms: TR-FRET usually uses a lanthanide donor and a delayed reading to cut background.
The subject of assay [1] is E. tenella schizont development. The experiment in a line: Schizont maturation assay. The conditions noted are these: n=2. Format: cell-based, Eimeria tenella.

EtCRK2, sequence (Q6R8F0 1-296): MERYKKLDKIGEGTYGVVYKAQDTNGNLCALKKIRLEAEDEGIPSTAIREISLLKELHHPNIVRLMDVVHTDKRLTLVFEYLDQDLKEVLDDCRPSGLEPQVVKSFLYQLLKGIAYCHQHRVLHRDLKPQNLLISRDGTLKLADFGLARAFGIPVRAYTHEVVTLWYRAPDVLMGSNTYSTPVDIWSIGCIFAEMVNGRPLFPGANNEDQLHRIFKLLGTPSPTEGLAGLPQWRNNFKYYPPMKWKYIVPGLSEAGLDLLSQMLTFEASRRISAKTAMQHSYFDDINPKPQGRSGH

`O=C(O)CN1C(=O)/C(=C2\SC(=S)NC2=O)c2ccccc21` [BES062021, 2-[(3Z)-2-oxo-3-(4-oxo-2-thioxo-thiazolidin-5-ylidene)indolin-1-yl]acetic acid]: at HsCDK2, the concentration for half-maximal inhibition (IC50) (as a rule, the midpoint of a concentration-inhibition curve) came out at 26 ± 19 µM and the Ki (in general, a dissociation constant, usually derived from enzyme kinetics or from competition with a known ligand) was 17 ± 8 µM. For the same molecule, at EtCRK2, half-maximal inhibition (IC50) required 23 ± 14 µM and the Ki stood at 16 ± 9 µM.

Turning to `CCN(CC)S(=O)(=O)c1ccc2c3c(cccc13)C(=O)N2` [BES143551, N,N-diethyl-2-oxo-1,2-dihydrobenzo[cd]indole-6-sulfonamide], the figures for the half-inhibitory concentration (IC50) against HsCDK2 and against EtCRK2 were 12 ± 7 µM and 36 ± 8 µM, respectively. Moreover, the Ki at HsCDK2 was found to be 2 ± 1 µM; at EtCRK2 it was 6 ± 2 µM.

Turning to `Cc1c(CCC(=O)O)c(=O)n2c([nH]c3ccccc32)c1C#N` [BES241415, 3-(4-cyano-3-methyl-1-oxo-5H-pyrido[1,2-a]benzimidazol-2-yl)propanoic acid], on EtCRK2, the half-inhibitory concentration (IC50) came to 61 ± 27 µM and the Ki amounted to 83 ± 29 µM.

In the case of `O=C1NC(=Nc2nc3cc([N+](=O)[O-])ccc3[nH]2)NC1=O` [BES252034, 2-[(5-nitro-1H-benzimidazol-2-yl)imino]imidazolidine-4,5-dione], on HsCDK2, half-maximal inhibition (IC50) was put at 35 ± 3 µM and the inhibition constant (Ki) stood at 8 ± 2 µM. On EtCRK2, the IC50 came out at 15 ± 3 µM and the affinity, expressed as Ki, was 8 ± 2 µM.

As for `CN1CC[C@H](c2c(O)cc(O)c3c(=O)cc(-c4ccccc4Cl)oc23)[C@H](O)C1` [Flavopiridol, 2-(2-Chlorophenyl)-5,7-dihydroxy-8-[(3S,4R)-3-hydroxy-1-methyl-4-piperidinyl]-4H-1-benzopyran-4-one], the “inhibition of E. tenella schizont development” value was “fully inhibited” in assay [1] (150 nM), “fully inhibited” in assay [1] (300 nM) and “no inhibitory effects” in assay [1] (concentrations below 80 nM).
